Data taken from PMC4741798, “Imaging of carbonic anhydrase IX with an ^111In-labeled dual-motif inhibitor” (Oncotarget, 2015).
Entries after “also recorded” stand apart in the source; their conditions may differ.

How the values were obtained:
[1] = system: CAIX-expressing SK-RC-52 cells; assay: Fluorescence microscopic analyses of labeled cells; assay type: cell-based; settings: 100 nM of 8 for 1 h; BxPC3 as negative cells
Description: CAIX-positive SK-RC-52 and CAIX-negative BxPC3 cells were seeded on to 8-well chamber glass slides (Lab-Tek®IICC^2™, Nunc, Rochester NY) and incubated in RPMI 1640 media supplemented with 10% FBS and 1 × penicillin-streptomycin in a 37°C humidified incubator for 48 h. Cells were stained with 100 nM of FITC-labeled 8 for 1 h in the same growth media followed by washing twice with the same media. Cells were fixed with 10% formaldehyde (Sigma-Aldrich, Saint Louis, MO) and washed three times with PBS. Cells were treated with 20 nM DAPI (4′,6-diamidino-2-phenylindole) in PBS. The chambers were removed and the Vectashield mounting solution (Vector Laboratories, Inc., Burlingame, CA) was added to the sample. Fluorescence microscopic images were taken using the Nikon Eclipse 80i epifluorescence microscope (Nikon Instruments Inc., Melville, NY) and the images were processed by the Element software (Nikon Instruments Inc.).

[2] = target: T1, CAII (Homo sapiens, UniProt P00918); assay: Fluorescence polarization for affinity comparison (saturation binding); settings: Fig. 4A
T1 construct: purchased R&D Systems
Description: (§1) Figure 4 Compound 8 had higher binding affinity to CAIX compared to CAII and CAXII Saturation binding curves for CAII, CAIX, and CAXII were generated. 5 nM of compound 8 was titrated by increasing concentrations of CAII, CAIX, and CAXII and the resultant fluorescence polarization (mP) was measured, with EC50 values calculated. […] The target in front of each value (CAII, CAIX, CAXII) is taken from the x-axis title of that panel.
(§2) Human recombinant CAII, CAIX, and CAXII were purchased from R&D systems (Minneapolis, MN). 5 nM of FITC-labeled 8 were mixed with serially diluted (from 1 μM to 19 fM) isoforms of the carbonic anhydrases in PBS within 384 well Small Volume™ LoBase Microplates (Greiner Bio-One, Frickenhausen Germany). The mixtures were incubated at room temperature for 1 h. Fluorescence polarization was measured using a Safire2™ plate reader (Tecan, Morrisville, NC), with 475 nm excitation and 530 nm emission wavelengths.

[3] = target: T2, CAXII (Homo sapiens, UniProt O43570); assay: as above; settings: Fig. 4C
T2 construct: purchased R&D Systems
Description: as §1, §2

[4] = target: CAIX; parameters: method as in PMID 25698334; settings: reported value; cited from earlier work
[5] = system: CAIX-negative BxPC3 cells; assay: FACS analysis of cell binding; assay type: cell-based; settings: 30 min room temperature
Description: (§3) CAIX-positive SK-RC-52 and CAIX-negative BxPC3 cells were maintained in RPMI 1640 media supplemented with 10% FBS and 1 × penicillin-streptomycin in a 37°C humidified incubator. Cells were detached from the flask with trypsin and reconstituted in RPMI 1640 media supplemented with 1% FBS at a density of 1 × 10^6 cells per mL. FITC-labeled 8 was added to the cells at the indicated concentration and incubated at room temperature for 30 min. Cells were washed twice with the same media for staining and analyzed using the FACSCalibur (BD Bioscience, San Jose, CA) instrument.

[6] = system: CAIX-expressing SK-RC-52 cells; assay: FACS analysis of cell binding; assay type: cell-based
Description: as §3

T2 sequence (O43570 25-354): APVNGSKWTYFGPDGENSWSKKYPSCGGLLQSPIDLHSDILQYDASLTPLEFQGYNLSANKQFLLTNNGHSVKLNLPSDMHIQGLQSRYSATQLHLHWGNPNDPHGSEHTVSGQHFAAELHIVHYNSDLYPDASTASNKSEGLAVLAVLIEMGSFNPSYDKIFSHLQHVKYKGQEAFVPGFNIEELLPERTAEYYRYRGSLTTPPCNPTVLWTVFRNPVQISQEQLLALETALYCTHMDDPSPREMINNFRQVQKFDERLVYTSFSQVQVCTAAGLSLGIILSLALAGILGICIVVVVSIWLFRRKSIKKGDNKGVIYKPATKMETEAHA

binding affinity to cytosolic CAII (in words) [2]: poor binding affinity | affinity to CAXII relative to CAIX (in words) [3]: about three-fold lower affinity
SMILES: CC(CCC(=O)N[C@@H](CC(=O)N[C@@H](CC(=O)N[C@@H](CCCCn1cc(CCCC(=O)Nc2nnc(S(N)(=O)=O)s2)nn1)C(=O)NCCOCCOCCNC(=S)Nc1ccc(-c2c3ccc(=O)cc-3oc3cc(O)ccc23)c(C(=O)O)c1)C(=O)O)C(=O)O)(c1ccc(O)cc1)c1ccc(O)cc1 [Compound 8]
cell surface staining by fluorescence microscopy (in words) [1]: Only SK-RC-52 cells were stained with 8 on the surface of the cells; also recorded: bound to the cell surface of SK-RC-52 | Kd [4]: 0.2 nM | binding to cells by FACS (in words) [5]: not to CAIX-negative BxPC3 cells | lowest concentration with significant binding to cells (FACS) [6]: 10 nM | binding to cells by FACS (in words) ([6]; 30 min room temperature): bound specifically
